Source: BindingDB's records for PubMed 37116763 (n/a, 2023)

Each compound was assayed against T1, Nuclear factor erythroid 2-related factor 2 (Homo sapiens, UniProt Q16236) (assay: Activation of Nrf2 in human IMR-32-ARE-Luc cells by Bright-Glo luciferase assay).
T1 sequence (Q16236 whole entry): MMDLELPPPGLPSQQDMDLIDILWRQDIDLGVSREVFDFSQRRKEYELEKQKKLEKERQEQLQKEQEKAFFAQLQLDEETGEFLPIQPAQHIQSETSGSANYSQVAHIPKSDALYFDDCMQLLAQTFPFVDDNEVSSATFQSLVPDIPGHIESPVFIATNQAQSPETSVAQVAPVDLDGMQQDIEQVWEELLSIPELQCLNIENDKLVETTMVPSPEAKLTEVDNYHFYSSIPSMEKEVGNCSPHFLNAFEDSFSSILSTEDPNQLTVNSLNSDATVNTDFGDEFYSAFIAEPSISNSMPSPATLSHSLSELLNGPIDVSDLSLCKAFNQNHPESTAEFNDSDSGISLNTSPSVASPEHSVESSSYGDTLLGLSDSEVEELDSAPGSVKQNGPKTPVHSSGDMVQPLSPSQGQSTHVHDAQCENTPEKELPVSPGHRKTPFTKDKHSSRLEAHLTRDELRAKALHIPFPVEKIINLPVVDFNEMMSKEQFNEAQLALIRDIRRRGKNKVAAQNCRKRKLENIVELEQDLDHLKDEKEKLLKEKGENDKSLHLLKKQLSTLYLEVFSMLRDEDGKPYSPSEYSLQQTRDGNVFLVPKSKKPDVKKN

EC50, > 20 µM:
CC(C)CN[C@H]1CS(=O)(=O)C[C@@H]1C(=O)Nc1ccc(Cl)c(Cl)c1, O=C(O)CCCN[C@H]1CS(=O)(=O)C[C@@H]1S(=O)(=O)c1ccc(Cl)c(Cl)c1, O=C(O)CCCCCN[C@H]1CS(=O)(=O)C[C@@H]1S(=O)(=O)c1ccc(Cl)c(Cl)c1
